Results reported in patent US8669256B2, “Substituted thieno[2,3-b]pyrazine compounds as modulators of B-Raf kinase activity” (Merck Sharp & Dohme B.V., priority 2010, dated 2014).
Where two headings read alike, the source gives them in different places.

Columns and labels:
[1] = system: phosphorylation of ERK1/2 in A375 cells containing mutant B-Raf (V600E); assay: Phospho-ERK FACE assay in A375 (B-Raf mutated) melanoma cell line; assay type: cell-based; conditions: Homo sapiens, read-out: IC50, A375 melanoma phospho-ERK assay
How it was run: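 A375 cells (B-Raf V600E), serum-starved overnight in 0.1% FBS, exposed to compounds for 2 hours at 37° C (1% DMSO). Fixed cells probed with anti-phospho-ERK1/2 (Thr202/Tyr204, Thr185/Tyr187) antibody overnight at 4° C, total ERK on a separate plate. HRP-secondary chemiluminescence read-out.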

[2] = molecular target: T1, GST-tagged human recombinant active B-Raf (Δ1-415) (Homo sapiens, UniProt P15056); assay: B-Raf kinase activity, IMAP coupled assay (B-Raf/MEK1/ERK2, fluorescence polarization); assay type: biochemical; conditions: bounds also given as pIC50 (>6, >7, >8); 60 min pre-incubation with compound, ATP 50 μM; read-out: IC50, B-Raf IMAP assay
T1 construct: GST; purchased Upstate/Millipore
T1 sequence (P15056 416-766, stated change not applied): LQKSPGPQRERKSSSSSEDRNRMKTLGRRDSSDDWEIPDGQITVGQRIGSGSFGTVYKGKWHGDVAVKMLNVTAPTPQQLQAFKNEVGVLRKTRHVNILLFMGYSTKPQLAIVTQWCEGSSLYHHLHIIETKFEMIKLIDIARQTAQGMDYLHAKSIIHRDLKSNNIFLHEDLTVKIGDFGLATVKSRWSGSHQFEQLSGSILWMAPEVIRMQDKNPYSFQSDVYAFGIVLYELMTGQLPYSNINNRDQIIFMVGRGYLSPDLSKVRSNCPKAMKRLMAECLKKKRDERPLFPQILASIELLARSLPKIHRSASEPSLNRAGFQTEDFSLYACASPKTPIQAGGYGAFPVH
How it was run: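 Coupled cascade: GST-B-Raf (Δ1-415; 0.2 U/ml) pre-incubated with compound (1% DMSO) 60 min at room temperature, then unactive MEK1 (64 ng/ml), unactive ERK2 (600 ng/ml), 50 nM fluorescein-Erktide and 50 μM ATP added for 60 min at 30 °C, pH 7.2 Tris buffer. Phosphopeptide captured on IMAP beads (60 min); fluorescence polarization read.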

[3] = A-375, A375 cells, 2 hours incubation, class between 10 μM and 1 μM (5<pIC50<6)
[4] = A-375, A375 cells, 2 hours incubation, between 1 μM and 100 nM (6<pIC50<7)
[5] = A-375, A375 cells, 2 hours incubation, class given as below 100 nM (pIC50>7)

IC50 [1, 3] | IC50 [2] | IC50 [1, 4] | IC50 [1, 5] | SMILES | IC50 ([1]; A-375, 2 h)
1000 to 10000 nM | < 100 nM |  |  | Cc1ccc(NC(=O)Nc2cccc(C(C)(C)C#N)c2)cc1NC(=O)c1cc2nccnc2s1 [Example 40, N-(5-(3-(3-(2-cyanopropan-2-yl)phenyl)ureido)-2-methylphenyl)thieno[2,3-b]pyrazine-6-carboxamide] | 
 | < 10 nM | 100 to 1000 nM |  | Cc1ccc(NC(=O)c2cccc(C(C)(C)C#N)c2)cc1NC(=O)c1sc2nccnc2c1C [Example 42, N-(5-(3-(2-cyanopropan-2-yl)benzamido)-2-methylphenyl)-7-methylthieno[2,3-b]pyrazine-6-carboxamide] | 
 | < 10 nM | 100 to 1000 nM |  | Cc1ccc(NC(=O)c2cccc(C(C)(C)C#N)c2)cc1NC(=O)c1sc2nccnc2c1C#N [Example 43, 7-cyano-N-(5-(3-(2-cyanopropan-2-yl)benzamido)-2-methylphenyl)thieno[2,3-b]pyrazine-6-carboxamide] | 
 | < 10 nM | 100 to 1000 nM |  | C=Cc1c(C(=O)Nc2cc(NC(=O)c3cccc(C(C)(C)C#N)c3)ccc2C)sc2nccnc12 [Example 44, N-(5-(3-(2-cyanopropan-2-yl)benzamido)-2-methylphenyl)-7-vinylthieno[2,3-b]pyrazine-6-carboxamide] | 
 | < 100 nM |  | < 100 nM | CCNc1c(C(=O)Nc2cc(NC(=O)c3cccc(C(C)(C)C#N)c3)ccc2C)sc2nccnc12 [Example 46, N-(5-(3-(2-cyanopropan-2-yl)benzamido)-2-methylphenyl)-7-(ethylamino)thieno[2,3-b]pyrazine-6-carboxamide] | 
 | < 100 nM | 100 to 1000 nM |  | Cc1ccc(NC(=O)c2cccc(C(C)(C)C#N)c2)cc1NC(=O)c1sc2ncc(C#N)nc2c1N [Example 49, 7-amino-2-cyano-N-(5-(3-(2-cyanopropan-2-yl)benzamido)-2-methylphenyl)thieno[2,3-b]pyrazine-6-carboxamide] | 
 | < 100 nM |  | < 100 nM | Cc1ccc(NC(=O)c2cccc(C(C)(C)C#N)c2)cc1NC(=O)c1sc2ncc(-c3ccco3)nc2c1N [Example 50, 7-amino-N-(5-(3-(2-cyanopropan-2-yl)benzamido)-2-methylphenyl)-2-(furan-2-yl)thieno[2,3-b]pyrazine-6-carboxamide] | 
 | < 100 nM | 100 to 1000 nM |  | CC(C)(C#N)c1cccc(C(=O)Nc2ccc(Br)c(NC(=O)c3cc4nccnc4s3)c2)c1 [Example 51, N-(2-bromo-5-(3-(2-cyanopropan-2-yl)benzamido)phenyl)thieno[2,3-b]pyrazine-6-carboxamide] | 
 | < 100 nM | 100 to 1000 nM |  | Cc1ccc(NC(=O)c2cccc(C(F)(F)F)c2)cc1NC(=O)c1cc2nc(-c3cccnc3)cnc2s1 [Example 53, N-(2-methyl-5-(3-(trifluoromethyl)benzamido)phenyl)-2-(pyridin-3-yl)thieno[2,3-b]pyrazine-6-carboxamide] | 
 | < 10 nM |  | < 100 nM | Cc1ccc(NC(=O)c2cccc(C(F)(F)F)c2)cc1NC(=O)c1sc2nccnc2c1N [Example 54, 7-amino-N-(2-methyl-5-(3-(trifluoromethyl)benzamido)phenyl)thieno[2,3-b]pyrazine-6-carboxamide] | 
1000 to 10000 nM | < 100 nM |  |  | CC(C)(C#N)c1cccc(C(=O)Nc2cc(NC(=O)c3cc4nccnc4s3)c(F)cc2F)c1 [Example 55, N-(5-(3-(2-cyanopropan-2-yl)benzamido)-2,4-difluorophenyl)thieno[2,3-b]pyrazine-6-carboxamide] | 
 | < 10 nM | 100 to 1000 nM |  | Cc1ccc(NC(=O)c2cccc(C(C)(C)C#N)c2)cc1NC(=O)c1cc2ncc(NCCN(C)C)nc2s1 [Example 61, N-(5-(3-(2-cyanopropan-2-yl)benzamido)-2-methylphenyl)-3-(2-(dimethylamino)ethylamino)thieno[2,3-b]pyrazine-6-carboxamide] | 

SMILES | IC50 [1, 3] | IC50 [2] | IC50 [1, 4] | IC50 [1, 5] | IC50 ([1]; A-375, 2 h)
Cc1ccc(NC(=O)c2cccc(C(C)(C)C#N)c2)cc1NC(=O)c1sc2nccnc2c1Br [Example 41, 7-bromo-N-(5-(3-(2-cyanopropan-2-yl)benzamido)-2-methylphenyl)thieno[2,3-b]pyrazine-6-carboxamide] |  | < 10 nM |  |  | 100 to 1000 nM
